# Article PMC12703733, “Probing Guanidino Pendant or Bridged Groups in Cyclic Antimicrobial Peptides Derived from Temporin L: A Strategy to Improve Efficacy against Gram-Negative Bacteria” (Journal of Medicinal Chemistry, 2025)
# Like-named read-outs stand apart in the source and are kept apart here.
# How the values were obtained:
# [1] = background value; cited from earlier work
# in vitro = in vitro ADME
# Description: Peptide stability was evaluated by modifying previously described procedures. , The assays were performed in human serum and in the presence of proteolytic enzymes such as trypsin and chymotrypsin. For human serum stability, 2 mM peptide stock solutions were prepared in water and mixed with human serum (from male AB plasma, USA origin, sterile-filtered, Merck/Sigma-Aldrich, USA) to obtain a final concentration of 200 μM [human plasma/stock solution (9:1, v/v)]. The mixtures were incubated at 37 ± 1 °C, and 50 μL aliquots were taken at predetermined time intervals (0, 1, 2, 4, 8, and 24 h). Protease activity was quenched by adding 100 μL of acetonitrile (MeCN). The resulting cloudy suspensions were cooled to 4 °C for 30 min and centrifugated at 12,000 rpm for 10 min to remove the serum proteins. Then, the supernatants were analyzed by analytical HPLC (Shimadzu Nexera Liquid Chromatograph LC-30AD) which was equipped with a Phenomenex Kinetex reversed-phase column (C18, 5 μm, 100 Å, 150 mm × 4.6 mm) with a flow rate of 1 mL/min using a gradient of MeCN (0.1% TFA) in water (0.1% TFA), from 10 to 70% over 15 min, and UV detection at 220 nm. For enzyme stability, each peptide peptide (200 μM) was incubated with trypsin (0.5 μM) in PBS 1× (pH 7.2) or with chymotrypsin (0.005 μM) in Tris–HCl (100 mM, pH 7.8). Samples (50 μL) were collected at 0, 1, 2, 4, and 24 h, quenched with 0.5% TFA in water, and analyzed by HPLC under chromatographic conditions as described above. All experiments were conducted in triplicate. The percentage of intact peptides at each time point was determined by integrating the corresponding HPLC peak areas.
# [2] = format: cell-based, human; conditions: human
# Description: (§1) For the evaluation of peptides’ cytotoxicity, the human immortalized keratinocytes (HaCaT cells), purchased from AddexBio (San Diego, CA, USA), and BEAS-2B were used. HaCaT cells were cultured in Dulbecco’s modified Eagle’s medium supplemented with 4 mM glutamine (DMEM), 10% heat-inactivated fetal bovine serum (FBS), and 0.1 mg/mL of penicillin and streptomycin, at 37 °C and 5% CO2. BEAS-2B cells were cultured in RPMI, supplemented with 2 mM glutamine (DMEM), 10% heat-inactivated fetal bovine serum (FBS), 1 mM sodium pyruvate, and 0.1 mg/mL of penicillin and streptomycin, at 37 °C and 5% CO2. Cytotoxicity was tested in vitro using a colorimetric assay that relies on the intracellular reduction of the yellow 3-(4,5-dimethylthiazol-2-yl)-2,5-diphenyltetrazolium bromide salt (MTT) by mitochondrial dehydrogenases of metabolically active cells in formazan crystals (purple). About 4 × 10^4 HaCaT and BEAS-2B cells, suspended in DMEM supplemented with 2% FBS, were plated in triplicate wells of a 96-well microtiter plate. The plate was incubated overnight at 37 °C and 5% CO2. Then, the cells were treated with different concentrations of the peptide (from 100 to 3.12 μM) in a fresh serum-free medium for 2 h and for a longer time (24 h). Following peptide treatment, the medium was removed, and MTT (0.5 mg/mL) solution in Hank’s buffer (136 mM NaCl, 4.2 mM Na2HPO4, 4.4 mM KH2PO4, 5.4 mM KCl, 4.1 mM NaHCO3, pH 7.2, supplemented with 20 mM D-glucose) was added to each well of the plate, that was then incubated for 4 h at 37 °C and 5% CO2. The purple formazan crystals were dissolved using acidified 2-propanol and a microplate reader (Infinite M200; Tecan, Salzburg, Austria) was used to measure the absorbance of each well at 570 nm. The percentage of cell viability was calculated compared to the control, which consisted of cells without any peptide treatment (corresponding to 100% viability) and all data represent the mean of three independent experiments ± SEM.
# circular dichroism = conditions: water; pH ns; 25 °C; 150 uM
# E. faecalis ATCC 29212 = experiment: microbe, parasite or virus in culture; format: cell-based; conditions: ATCC 29212
# Description: (§2) Bacterial strains used in this study were the Gram-positive S. aureus ATCC 25923, S. epidermidis ATCC 12228, B. megaterium BM11, S. [NT] 27591, E. faecalis ATCC 29212 and the Gram-negative E. coli ATCC 25922, P. aeruginosa ATCC 27853, A. baumannii ATCC 19606, E. coli D21 and P. aeruginosa PAO1. […] Bacterial cells in the mid log phase were diluted in Muller Hinton (MH) at a concentration of 2 × 10^6 cell/mL. […] Ciprofloxacin was used as antibiotic control. The plate was then incubated at 37 °C. MICs were obtained from three identical readings of four independent experiments.
# A. baumannii ATCC 19606 = experiment: microbe, parasite or virus in culture; format: cell-based; conditions: ATCC 19606
# Description: as §2
# [3] = test system: S. epidermidis ATCC 12228; experiment: microbe, parasite or virus in culture; format: cell-based; conditions: ATCC 12228
# Description: as §2
# S. aureus ATCC 25923 = experiment: microbe, parasite or virus in culture; format: cell-based; conditions: ATCC 25923
# Description: as §2
# B. megaterium BM11 = experiment: microbe, parasite or virus in culture; format: cell-based; conditions: BM11
# Description: as §2
# E. coli D21 = experiment: microbe, parasite or virus in culture; format: cell-based; conditions: D21
# Description: as §2
# S. agalactiae ATCC 27591 = experiment: microbe, parasite or virus in culture; format: cell-based; conditions: ATCC 27591
# Description: as §2
# P. aeruginosa ATCC 27853 = experiment: microbe, parasite or virus in culture; format: cell-based; conditions: ATCC 27853
# Description: as §2
# E. coli ATCC 25922 = experiment: microbe, parasite or virus in culture; format: cell-based; conditions: ATCC 25922
# Description: as §2
# [4] = format: cell-based
# Description: as §1
# [5] = isolated enzyme trypsin, pH 7.2
compound,measurement,setting,value
N=C(N)NCCC[C@H](N)C(=O)O [arginine],pK a1,[1],2.18
same,pK a2,[1],9.09
same,pK a3,[1],13.20
NCCCC[C@H](N)C(=O)O [lysine],pK a,[1],10.94
"CC[C@H](C)[C@H](NC(=O)[C@H](CCCNC(=N)N)NC(=O)[C@H]1CCCCNC(=N)NCCCC[C@H](NC(=O)[C@H](Cc2ccccc2)NC(=O)[C@H](Cc2c[nH]c3ccccc23)NC(=O)[C@@H]2CCCN2C(=O)[C@@H](NC(=O)[C@@H](N)Cc2ccccc2)C(C)C)C(=O)N[C@@H](CCCCN)C(=O)N[C@@H](Cc2ccccc2)C(=O)N[C@H](CC(C)C)C(=O)N1)C(=O)N[C@@H](CC(C)C)C(N)=O [Peptide 12, FVPWF{KKFlk}RIL]","remaining at 4 h, 200 μM","in vitro; isolated enzyme chymotrypsin, pH 7.8",~40%
same,"remaining at 4 h, 200 μM",in vitro; [5],~80%
same,"remaining at 24 h, 200 μM",in vitro; [5],~35%
same,CC50 at 24 h,[2]; CC50,19.6 µM
same,"viability at 2 h, 3.12 µM",[2]; Cell viability (%),101%
same,"viability at 2 h, 6.25 µM",[2]; Cell viability (%),103%
same,"viability at 2 h, 12.5 µM",[2]; Cell viability (%),88%
same,"viability at 2 h, 25 µM",[2]; Cell viability (%),47%
same,"viability at 2 h, 50 µM",[2]; Cell viability (%),11%
same,"viability at 2 h, 100 µM",[2]; Cell viability (%),10%
same,"viability at 24 h, 3.12 µM",[2]; Cell viability (%),100 ± 1%
same,"viability at 24 h, 6.25 µM",[2]; Cell viability (%),101 ± 2%
same,"viability at 24 h, 12.5 µM",[2]; Cell viability (%),90 ± 4%
same,"viability at 24 h, 25 µM",[2]; Cell viability (%),28 ± 4%
same,"viability at 24 h, 50 µM",[2]; Cell viability (%),2 ± 1%
same,"viability at 24 h, 100 µM",[2]; Cell viability (%),3 ± 1%
same,helicity,circular dichroism,63%
same,MIC,E. faecalis ATCC 29212,6.25 µM
same,MIC,A. baumannii ATCC 19606,1.56 µM
same,MIC,[3],1.56 µM
same,MIC,S. aureus ATCC 25923,6.25 µM
same,MIC,B. megaterium BM11,0.39 µM
same,MIC,E. coli D21,3.12 µM
same,MIC,S. agalactiae ATCC 27591,1.56 µM
same,MIC,P. aeruginosa ATCC 27853,12.5 µM
same,MIC,E. coli ATCC 25922,6.25 µM
same,"viability at 2 h, 3.12 µM",[4]; Cell viability (%),106%
same,"viability at 2 h, 6.25 µM",[4]; Cell viability (%),104%
same,"viability at 2 h, 12.5 µM",[4]; Cell viability (%),56%
same,"viability at 2 h, 25 µM",[4]; Cell viability (%),14%
same,"viability at 2 h, 50 µM",[4]; Cell viability (%),4%
same,"viability at 2 h, 100 µM",[4]; Cell viability (%),4%
same,"viability at 24 h, 3.12 µM",[4]; Cell viability (%),93%
same,"viability at 24 h, 6.25 µM",[4]; Cell viability (%),86%
same,"viability at 24 h, 12.5 µM",[4]; Cell viability (%),66%
same,"viability at 24 h, 25 µM",[4]; Cell viability (%),14%
same,"viability at 24 h, 100 µM",[4]; Cell viability (%),0%
same,viability at 12.5 µM,[4]; cell viability,~60%
